The experiment deals with MSH3. Nature of the experiment: QPCR assay for levels of MSH3 upon compound treatment in HEK293T or AD293 cells (fold-change of MSH3 transcript, EC50 of MSH3 downregulation; total MSH3 exons 13/14, exons 20/21; Table 8). The class given is cell-based. As to conditions: for mrna remaining at 1 µM / mrna remaining at 10 µM: Homo sapiens, fold-change of the MSH3 transcript, normalized to GAPDH; for mrna remaining at 1 µM: 1 μM compound; for mrna remaining at 10 µM: 10 μM compound. In outline: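 HEK293T or AD293 cells were treated at 1 μM and […]; RNA-to-cDNA qPCR used TaqMan assays for total MSH3 (exons 13/14, exons 20/21) and poison-exon junctions exon 13/PE14A and exon 20/PE21A. Transcript levels were normalized to GAPDH.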

Each structure is given as a SMILES string.

Turning to `CN(c1ccc(N2Cc3ncc(-c4cn(C)nc4C(F)(F)F)cc3C2=O)nn1)[C@H]1C[C@]2(C)CC[C@](C)(C1)N2` [Compound 183, 6-(6-(((1R,3s,5S)-1,5-dimethyl-8-azabicyclo[3.2.1]octan-3-yl)(methyl)amino)pyridazin-3-yl)-3-(1-methyl-3-(trifluoromethyl)-1H-pyrazol-4-yl)-6,7-dihydro-5H-pyrrolo[3,4-b]pyridin-5-one], the mrna remaining at 1 µM turned out to be 99% and the mrna remaining at 10 µM was found to be 28%.
For the compound `Cc1nn(C)nc1-c1cc(Cl)c2c(c1)C(=O)N(c1ccc(N(C)[C@H]3C[C@]4(C)CC[C@](C)(C3)N4)nn1)C2` [Compound 660, 4-chloro-6-(2,5-dimethyl-2H-1,2,3-triazol-4-yl)-2-(6-(((1R,3s,5S)-1,5-dimethyl-8-azabicyclo[3.2.1]octan-3-yl)(methyl)amino)pyridazin-3-yl)isoindolin-1-one], the mrna remaining at 1 µM came to 101% and the mrna remaining at 10 µM turned out to be 50%.
The corresponding values for `CN(C)C1CCN(c2ccc(N3Cc4ncc(-c5nn(C)nc5Cl)cc4C3=O)nn2)CC1` [Compound 618, 3-(5-chloro-2-methyl-2H-1,2,3-triazol-4-yl)-6-(6-(4-(dimethylamino)piperidin-1-yl)pyridazin-3-yl)-6,7-dihydro-5H-pyrrolo[3,4-b]pyridin-5-one] are 83% and 68%.
For `CN(c1ccc(N2Cc3c(F)cc(-n4nccn4)cc3C2=O)nn1)[C@H]1C[C@]2(C)CC[C@](C)(C1)N2` [Compound 673, 2-(6-(((1R,3s,5S)-1,5-dimethyl-8-azabicyclo[3.2.1]octan-3-yl)(methyl)amino)pyridazin-3-yl)-4-fluoro-6-(2H-1,2,3-triazol-2-yl)isoindolin-1-one] the same measures were 91% and 33%.
Turning to `Cc1nc(C)c(-c2cnc3c(c2)C(=O)N(c2ccc(OC4CC(C)(C)NC(C)(C)C4)nn2)C3)s1` [Compound 150, 3-(2,4-dimethylthiazol-5-yl)-6-(6-((2,2,6,6-tetramethylpiperidin-4-yl)oxy)pyridazin-3-yl)-6,7-dihydro-5H-pyrrolo[3,4-b]pyridin-5-one], the mrna remaining at 1 µM worked out at 116% and the mrna remaining at 10 µM came out at 77%.
For `Cc1nn(C)nc1-c1cnc2c(c1)C(=O)N(c1ccc(N3CCC[C@@H](NC(C)(C)C)C3)nn1)C2` [Compound 616, (R)-6-(6-(3-(tert-butylamino)piperidin-1-yl)pyridazin-3-yl)-3-(2,5-dimethyl-2H-1,2,3-triazol-4-yl)-6,7-dihydro-5H-pyrrolo[3,4-b]pyridin-5-one] the same measures were 100% and 67%.
The corresponding values for `Cc1nn(C)cc1-c1cnc2c(c1)C(=O)N(c1ccc(O[C@H]3C[C@@]4(C)CC[C@](C)(N4)[C@H]3F)nn1)C2` [Compound 181, 3-(1,3-dimethyl-1H-pyrazol-4-yl)-6-(6-(((1S,2R,3S,5R)-2-fluoro-1,5-dimethyl-8-azabicyclo[3.2.1]octan-3-yl)oxy)pyridazin-3-yl)-6,7-dihydro-5H-pyrrolo[3,4-b]pyridin-5-one] are 92% and 103%.
For `Cc1nn(C)cc1-c1cc2c(c(Cl)n1)CN(c1ccc(N(C)[C@H]3C[C@]4(C)CC[C@](C)(C3)N4)nn1)C2=O` [Compound 90, 4-chloro-6-(1,3-dimethyl-1H-pyrazol-4-yl)-2-(6-(((1R,3s,5S)-1,5-dimethyl-8-azabicyclo[3.2.1]octan-3-yl)(methyl)amino)pyridazin-3-yl)-2,3-dihydro-1H-pyrrolo[3,4-c]pyridin-1-one] the same measures were 38% and 18%.
As for `Cc1nn(C)cc1-c1cc2c(c(Cl)n1)CN(c1ccc(O[C@H]3C[C@]4(C)CC[C@](C)(C3)N4)nn1)C2=O` [Compound 93, 4-chloro-6-(1,3-dimethyl-1H-pyrazol-4-yl)-2-(6-(((1R,3s,5S)-1,5-dimethyl-8-azabicyclo[3.2.1]octan-3-yl)oxy)pyridazin-3-yl)-2,3-dihydro-1H-pyrrolo[3,4-c]pyridin-1-one], the mrna remaining at 1 µM turned out to be 91% and the mrna remaining at 10 µM turned out to be 72%.
The corresponding values for `CN(c1ncc(N2Cc3ncc(-c4cn(C)nc4F)cc3C2=O)nn1)[C@H]1C[C@]2(C)CC[C@](C)(C1)N2` [Compound 217, 6-(3-(((1R,3s,5S)-1,5-dimethyl-8-azabicyclo[3.2.1]octan-3-yl)(methyl)amino)-1,2,4-triazin-6-yl)-3-(3-fluoro-1-methyl-1H-pyrazol-4-yl)-6,7-dihydro-5H-pyrrolo[3,4-b]pyridin-5-one] are 92% and 78%.
For `Cn1nc(Cl)c(-c2cnc3c(c2)C(=O)N(c2ccc(O[C@H]4CCC(C)(C)NC(C)(C)C4)nn2)C3)n1` [Compound 607, (S)-3-(5-chloro-2-methyl-2H-1,2,3-triazol-4-yl)-6-(6-((2,2,7,7-tetramethylazepan-4-yl)oxy)pyridazin-3-yl)-6,7-dihydro-5H-pyrrolo[3,4-b]pyridin-5-one] the same measures were 72% and 9%.
For `CC(C)[C@@H]1CN(c2ccc(N3Cc4c(F)cc(-c5nn(C)nc5Cl)cc4C3=O)nn2)CCN1` [Compound 638, (R)-6-(5-chloro-2-methyl-2H-1,2,3-triazol-4-yl)-4-fluoro-2-(6-(3-isopropylpiperazin-1-yl)pyridazin-3-yl)isoindolin-1-one], the mrna remaining at 1 µM was determined as 112% and the mrna remaining at 10 µM turned out to be 22%.
Turning to `COc1cc(-c2nn(C)nc2C)cc2c1CN(c1ccc(N(C)[C@H]3C[C@]4(C)CC[C@](C)(C3)N4)nn1)C2=O` [Compound 687, 6-(2,5-dimethyl-2H-1,2,3-triazol-4-yl)-2-(6-(((1R,3s,5S)-1,5-dimethyl-8-azabicyclo[3.2.1]octan-3-yl)(methyl)amino)pyridazin-3-yl)-4-methoxyisoindolin-1-one], the mrna remaining at 1 µM worked out at 110% and the mrna remaining at 10 µM came out at 19%.
For `Cc1nn(C)nc1-c1cc(F)c2c(c1)C(=O)N(c1ccc(N3CCNC4(CC4)C3)nn1)C2` [Compound 650, 2-(6-(4,7-diazaspiro[2.5]octan-7-yl)pyridazin-3-yl)-6-(2,5-dimethyl-2H-1,2,3-triazol-4-yl)-4-fluoroisoindolin-1-one] the same measures were 97% and 75%.
On to `Cc1nn(C)cc1-c1cc2c(nn1)CN(c1ccc(O[C@H]3C[C@]4(C)CC[C@](C)(C3)N4)nn1)C2=O` [Compound 595, 3-(1,3-dimethyl-1H-pyrazol-4-yl)-6-(6-(((1R,3s,5S)-1,5-dimethyl-8-azabicyclo[3.2.1]octan-3-yl)oxy)pyridazin-3-yl)-6,7-dihydro-5H-pyrrolo[3,4-c]pyridazin-5-one], for which the mrna remaining at 1 µM amounted to 91% and the mrna remaining at 10 µM is 18%.
Turning to `Cn1ncc(-c2ccc3c(c2)C(=O)N(c2ccc(OC4CC(C)(C)NC(C)(C)C4)nn2)C3)n1` [Compound 362, 6-(2-methyl-2H-1,2,3-triazol-4-yl)-2-(6-((2,2,6,6-tetramethylpiperidin-4-yl)oxy)pyridazin-3-yl)isoindolin-1-one], the mrna remaining at 1 µM was determined as 65% and the mrna remaining at 10 µM is 75%.
Consider `CN(c1ccc(N2Cc3c(F)cc(-c4cnn(CC(C)(C)O)n4)cc3C2=O)nn1)[C@H]1C[C@]2(C)CC[C@](C)(C1)N2` [Compound 634, 2-(6-(((1R,3s,5S)-1,5-dimethyl-8-azabicyclo[3.2.1]octan-3-yl)(methyl)amino)pyridazin-3-yl)-4-fluoro-6-(2-(2-hydroxy-2-methylpropyl)-2H-1,2,3-triazol-4-yl)isoindolin-1-one], for which the mrna remaining at 1 µM worked out at 63% and the mrna remaining at 10 µM was 76%.
The corresponding values for `CC(C)(O)Cn1cc(-c2cc3c(cn2)CN(c2ccc(OC4CC(C)(C)NC(C)(C)C4)nn2)C3=O)cn1` [Compound 21, 6-(1-(2-hydroxy-2-methylpropyl)-1H-pyrazol-4-yl)-2-(6-((2,2,6,6-tetramethylpiperidin-4-yl)oxy)pyridazin-3-yl)-2,3-dihydro-1H-pyrrolo[3,4-c]pyridin-1-one] are 54% and 58%.
Regarding `Cc1nn(C)nc1-c1cc(F)c2c(c1)C(=O)N(c1ccc(N(C)C3CC(C)(C)NC(C)(C)C3)nn1)C2` [Compound 293, 6-(2,5-dimethyl-2H-1,2,3-triazol-4-yl)-4-fluoro-2-(6-(methyl(2,2,6,6-tetramethylpiperidin-4-yl)amino)pyridazin-3-yl)isoindolin-1-one], the mrna remaining at 1 µM came to 54% and the mrna remaining at 10 µM worked out at 12%. Also, the EC50 – broadly, the concentration that produces a half-maximal response – (EC50 of MSH3 downregulation, XtalPi) was approximately 1060 nM.
Turning to `Cc1nn(C)nc1-c1cc(F)c2c(c1)C(=O)N(c1ccc(N3CCNC(C)CC3)nn1)C2` (stereo not drawn) [Compound 639, 6-(2,5-dimethyl-2H-1,2,3-triazol-4-yl)-4-fluoro-2-(6-(5-methyl-1,4-diazepan-1-yl)pyridazin-3-yl)isoindolin-1-one], the mrna remaining at 1 µM worked out at 118% and the mrna remaining at 10 µM turned out to be 55%.
For `Cc1nn(C)nc1-c1cnc2c(n1)C(=O)N(c1ccc(OC3CC(C)(C)NC(C)(C)C3)nn1)C2` [Compound 624, 3-(2,5-dimethyl-2H-1,2,3-triazol-4-yl)-6-(6-((2,2,6,6-tetramethylpiperidin-4-yl)oxy)pyridazin-3-yl)-6,7-dihydro-5H-pyrrolo[3,4-b]pyrazin-5-one], the mrna remaining at 1 µM amounted to 60% and the mrna remaining at 10 µM came out at 12%.
For `CN(c1ccc(N2Cc3ncc(-c4cnn(CC(C)(C)O)c4)nc3C2=O)nn1)[C@H]1C[C@]2(C)CC[C@](C)(C1)N2` [Compound 625, 6-(6-(((1R,3s,5S)-1,5-dimethyl-8-azabicyclo[3.2.1]octan-3-yl)(methyl)amino)pyridazin-3-yl)-3-(1-(2-hydroxy-2-methylpropyl)-1H-pyrazol-4-yl)-6,7-dihydro-5H-pyrrolo[3,4-b]pyrazin-5-one], the mrna remaining at 1 µM is 81% and the mrna remaining at 10 µM amounted to 108%.
